In patent US12139492B2 (Endotarget Inc., priority 2021, dated 2024):
Like-named read-outs stand apart in the source and are kept apart here.

Legend:
[1] = test system: Mino cells; test: Antiproliferative effect, MTS cell viability assay, Mino cells; assay type: cell-based; conditions: Homo sapiens, MINO, Mino mantle cell lymphoma cells; read-out: IC50 (anti-proliferation) Mino cells
In short: (§1)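 Steps: seed B-cell lymphoma line; add compound at 0, 0.001, 0.01, 0.1, 1 or 10 μM; incubate 72 h; add MTS and read reduced tetrazolium (formazan) absorbance at 490 nm.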

[2] = test system: JeKo-1 cells; test: Antiproliferative effect, MTS cell viability assay, JeKo-1 cells; assay type: cell-based; conditions: Homo sapiens; JeKo-1 mantle cell lymphoma cells; read-out: IC50 (anti-proliferation) JeKO-1 cells
In short: as §1

[3] = molecular target: BTK (Homo sapiens, UniProt Q06187); test: Degradation of BTK protein in Namalwa cells (Western blot; DC50, Dmax); conditions: for DC50: cell line not given
[4] = read-out: DC50 (BTK degradation), concentration giving 50% reduction of BTK expression level
[5] = read-out: Dmax (BTK degradation)

BTK, sequence (Q06187 whole entry): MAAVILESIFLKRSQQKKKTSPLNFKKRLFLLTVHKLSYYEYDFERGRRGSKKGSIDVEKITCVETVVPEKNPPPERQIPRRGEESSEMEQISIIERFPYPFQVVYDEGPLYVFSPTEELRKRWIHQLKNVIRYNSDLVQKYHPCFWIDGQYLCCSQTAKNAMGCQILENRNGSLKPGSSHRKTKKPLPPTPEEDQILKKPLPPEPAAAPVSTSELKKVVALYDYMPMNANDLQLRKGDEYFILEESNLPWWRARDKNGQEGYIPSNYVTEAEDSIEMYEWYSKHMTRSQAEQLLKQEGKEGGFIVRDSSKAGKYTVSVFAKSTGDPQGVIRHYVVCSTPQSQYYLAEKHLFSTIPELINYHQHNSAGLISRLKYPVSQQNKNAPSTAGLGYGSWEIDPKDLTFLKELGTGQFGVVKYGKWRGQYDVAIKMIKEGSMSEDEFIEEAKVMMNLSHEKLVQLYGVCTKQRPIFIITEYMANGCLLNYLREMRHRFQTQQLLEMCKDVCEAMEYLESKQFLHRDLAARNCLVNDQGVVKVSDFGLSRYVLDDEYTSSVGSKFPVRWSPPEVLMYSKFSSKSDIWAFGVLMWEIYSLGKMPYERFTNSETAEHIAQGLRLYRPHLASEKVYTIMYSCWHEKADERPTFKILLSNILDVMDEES

SMILES	DC50 [3, 4]	Dmax [3, 5]	Dmax [3]	DC50 ([3]; BTK degradation)	degradation of BTK protein ([3]; Namalwa B lymphocyte cells, various concentrations, 24 hours, Western blot)	IC50 [1]	IC50 [2]
Nc1ncnc2c1c(-c1ccc(Oc3ccccc3)cc1)nn2C1CCN(CCN2CCN(CCSc3ccc4c(c3)C(=O)N(C3CCC(=O)NC3=O)C4=O)CC2)CC1 (stereo not shown) [Compound 465, 5-((2-(4-(2-(4-(4-amino-3-(4-phenoxyphenyl)-1H-pyrazolo(3,4-d)pyrimidin-1-yl)piperidin-1-yl)ethyl)piperazin-1-yl)ethyl)thio)-2-(2,6-dioxopiperidin-3-yl)isoindoline-1,3-dione]	10 to 50 nM	> 90%	–	–	–	1000 to 10000 nM	1000 to 10000 nM
Nc1ncnc2c1c(-c1ccc(Oc3ccccc3)cc1)nn2C1CCC(C(=O)NCCN2CCN(c3ccc4c(c3)C(=O)N(C3CCC(=O)NC3=O)C4=O)CC2)CC1 (stereo not shown) [Compound 522, 4-(4-amino-3-(4-phenoxyphenyl)-1H-pyrazolo[3,4-d]pyrimidin-1-yl)-N-(2-(4-(2-(2,6-dioxopiperidin-3-yl)-1,3-dioxoisoindolin-5-yl)piperazin-1-yl)ethyl)cyclohexane-1-carboxamide]	< 10 nM	> 90%	–	–	–	< 1000 nM	< 1000 nM
NC(=O)c1c(-c2ccc(Oc3ccccc3)cc2)nn2c1NCCC2C1CCN(C2CCN(CCC3CCN(c4ccc5c(c4)CN(C4CCC(=O)NC4=O)C5=O)CC3)CC2)CC1 (stereo not shown) [Compound 310, 7-(1′-(2-(1-(2-(2,6-dioxopiperidin-3-yl)-1-oxoisoindolin-5-yl)piperidin-4-yl)ethyl)-[1,4′-bipiperidin]-4-yl)-2-(4-phenoxyphenyl)-4,5,6,7-tetrahydropyrazolo[1,5-a]pyrimidine-3-carboxamide]	–	–	> 75%	10 to 50 nM	–	> 10000 nM	> 10000 nM
Nc1ncnc2c1c(-c1ccc(Oc3ccccc3)cc1)nn2C1CCN(CC2CN(CC3CN(c4ccc5c(c4)CN(C4CCC(=O)NC4=O)C5=O)C3)C2)CC1 (stereo not shown) [Compound 442, 3-(5-(3-((3-((4-(4-amino-3-(4-phenoxyphenyl)-1H-pyrazolo[3,4-d]pyrimidin-1-yl)piperidin-1-yl)methyl)azetidin-1-yl)methyl)azetidin-1-yl)-1-oxoisoindolin-2-yl)piperidine-2,6-dione]	–	< 50%	–	–	–	> 10000 nM	> 10000 nM
NC(=O)c1c(-c2ccc(Oc3ccccc3)cc2)nn2c1NCCC2C1CCN(C2CCN(CC3CCN(c4ccc5c(c4)CN(C4CCC(=O)NC4=O)C5=O)CC3)CC2)CC1 (stereo not shown) [Compound 306, 7-(1′-((1-(2-(2,6-dioxopiperidin-3-yl)-1-oxoisoindolin-5-yl)piperidin-4-yl)methyl)-[1,4′-bipiperidin]-4-yl)-2-(4-phenoxyphenyl)-4,5,6,7-tetrahydropyrazolo[1,5-a]pyrimidine-3-carboxamide]	–	–	> 90%	10 to 50 nM	–	1000 to 10000 nM	1000 to 10000 nM
NC(=O)c1c(-c2ccc(Oc3ccccc3)cc2)nn2c1NCC[C@H]2C1CCN(C2CCN(C(=O)N3CCC(N4CCN(c5ccc6c(c5)C(=O)N(C5CCC(=O)NC5=O)C6=O)CC4)CC3)CC2)CC1 (stereo partly drawn) [Compound 381, (7S)-7-(1′-(4-(4-(2-(2,6-dioxopiperidin-3-yl)-1,3-dioxoisoindolin-5-yl)piperazin-1-yl)piperidine-1-carbonyl)-[1,4′-bipiperidin]-4-yl)-2-(4-phenoxyphenyl)-4,5,6,7-tetrahydropyrazolo[1,5-a]pyrimidine-3-carboxamide]	–	–	> 90%	< 10 nM	–	< 1000 nM	< 1000 nM
Nc1ncnc2c1c(-c1ccc(Oc3ccccc3)cc1)nn2C1CCN(C(=O)C2CC(N3CCN(c4ccc5c(c4)C(=O)N(C4CCC(=O)NC4=O)C5=O)CC3)C2)CC1 (stereo not shown) [Compound 507, 5-(4-(3-(4-(4-amino-3-(4-phenoxyphenyl)-1H-pyrazolo[3,4-d]pyrimidin-1-yl)piperidine-1-carbonyl)cyclobutyl)piperazin-1-yl)-2-(2,6-dioxopiperidin-3-yl)isoindoline-1,3-dione]	< 10 nM	> 90%	–	–	–	< 1000 nM	< 1000 nM

Further lines, with some results ahead:

DC50 [3, 4]	Dmax [3, 5]	Dmax [3]	DC50 ([3]; BTK degradation)	degradation of BTK protein ([3]; Namalwa B lymphocyte cells, various concentrations, 24 hours, Western blot)	SMILES	IC50 [1]	IC50 [2]
10 to 50 nM	> 90%	–	–	–	Nc1ncnc2c1c(-c1ccc(Oc3ccccc3)cc1)nn2C1CCN(CCCN2CCC(CC3CCN(c4ccc(NC5CCC(=O)NC5=O)cc4)CC3)C2)CC1 (stereo not shown) [Compound 567, 3-((4-(4-((1-(3-(4-(4-amino-3-(4-phenoxyphenyl)-1H-pyrazolo[3,4-d]pyrimidin-1-yl)piperidin-1-yl)propyl)pyrrolidin-3-yl)methyl)piperidin-1-yl)phenyl)amino)piperidine-2,6-dione]	1000 to 10000 nM	< 1000 nM
10 to 50 nM	> 75%	–	–	–	Nc1ncnc2c1c(-c1ccc(Oc3ccccc3)cc1)nn2C1CCN(CCCN2CCC(CN3CCC(c4ccc5c(c4)oc(=O)n5C4CCC(=O)NC4=O)CC3)C2)CC1 (stereo not shown) [Compound 543, 3-(6-(1-((1-(3-(4-(4-amino-3-(4-phenoxyphenyl)-1H-pyrazolo[3,4-d]pyrimidin-1-yl)piperidin-1-yl)propyl)pyrrolidin-3-yl)methyl)piperidin-4-yl)-2-oxobenzo[d]oxazol-3(2H)-yl)piperidine-2,6-dione]	1000 to 10000 nM	1000 to 10000 nM
< 10 nM	> 90%	–	–	–	Nc1ncnc2c1c(-c1ccc(Oc3ccccc3)cc1)nn2C1CCN(C2CCN(CCCN3CCN(c4ccc(N5CCC(=O)NC5=O)cc4)CC3)C2)CC1 (stereo not shown) [Compound 577, 1-(4-(4-(3-(3-(4-(4-amino-3-(4-phenoxyphenyl)-1H-pyrazolo[3,4-d]pyrimidin-1-yl)piperidin-1-yl)pyrrolidin-1-yl)propyl)piperazin-1-yl)phenyl)dihydropyrimidine-2,4(1H,3H)-dione]	1000 to 10000 nM	1000 to 10000 nM
> 50 nM	> 90%	–	–	dose-dependent degradation	Nc1ncnc2c1c(-c1ccc(Oc3ccccc3)cc1)nn2C1CCN(C2CCN(CC3CN(c4ccc5c(c4)C(=O)N(C4CCC(=O)NC4=O)C5=O)C3)CC2)CC1 (stereo not shown) [Compound 433, 5-(3-((4-(4-amino-3-(4-phenoxyphenyl)-1H-pyrazolo(3,4-d)pyrimidin-1-yl)-(1,4′-bipiperidin)-1′-yl)methyl)azetidin-1-yl)-2-(2,6-dioxopiperidin-3-yl)isoindoline-1,3-dione]	< 1000 nM	1000 to 10000 nM
10 to 50 nM	> 75%	–	–	–	Nc1ncnc2c1c(-c1ccc(Oc3ccccc3)cc1)nn2[C@@H]1CCCN(C2CCN(CC3CCN(c4ccc(N5CCC(=O)NC5=O)cc4)CC3)CC2)C1 [Compound 528, (R)-1-(4-(4-((3-(4-amino-3-(4-phenoxyphenyl)-1H-pyrazolo[3,4-d]pyrimidin-1-yl)-[1,4′-bipiperidin]-1′-yl)methyl)piperidin-1-yl)phenyl)dihydropyrimidine-2,4(1H,3H)-dione]	1000 to 10000 nM	1000 to 10000 nM
–	–	> 75%	10 to 50 nM	–	Nc1ncnc2c1c(-c1ccc(Oc3ccccc3)cc1)nn2C1CCN(C2CCN(CCC3CCN(c4ccc5c(c4)CN(C4CCC(=O)NC4=O)C5=O)CC3)CC2)CC1 (stereo not shown) [Compound 216, 3-(5-(4-(2-(4-(4-amino-3-(4-phenoxyphenyl)-1H-pyrazolo[3,4-d]pyrimidin-1-yl)-[1,4′-bipiperidin]-1′-yl)ethyl)piperidin-1-yl)-1-oxoisoindolin-2-yl)piperidine-2,6-dione]	< 1000 nM	< 1000 nM
